In data set [1] the test system is cryopreserved hepatocytes. The experiment in a line: Metabolites of [14C]BIC in cryopreserved hepatocytes, dog. The class given is in vitro ADME. The settings on record: Beagle Dog hepatocytes, 4 hours, [14C]BIC 20 μM. The text has this: (§1) Metabolic pathways included hydroxylation (3 variants), N-dealkylation, and direct glucuronidation. All human metabolites were also observed in nonclinical species. Using the hepatocyte system where the full range of hepatic metabolic enzymes are represented, it appeared that the metabolism of BIC was extensive in monkey and dog but lower in rat and human.

Data set [2] deals with cryopreserved hepatocytes. Description: Metabolites of [14C]BIC in cryopreserved hepatocytes, rat. The class given is in vitro ADME. The settings on record: Wister-Han Rat hepatocytes, 4 hours, [14C]BIC 20 μM.
From the text: as §1

The target in another data set is T1, OATP1B1 (Homo sapiens, UniProt Q9Y6L6).
T1 sequence (Q9Y6L6 1-691): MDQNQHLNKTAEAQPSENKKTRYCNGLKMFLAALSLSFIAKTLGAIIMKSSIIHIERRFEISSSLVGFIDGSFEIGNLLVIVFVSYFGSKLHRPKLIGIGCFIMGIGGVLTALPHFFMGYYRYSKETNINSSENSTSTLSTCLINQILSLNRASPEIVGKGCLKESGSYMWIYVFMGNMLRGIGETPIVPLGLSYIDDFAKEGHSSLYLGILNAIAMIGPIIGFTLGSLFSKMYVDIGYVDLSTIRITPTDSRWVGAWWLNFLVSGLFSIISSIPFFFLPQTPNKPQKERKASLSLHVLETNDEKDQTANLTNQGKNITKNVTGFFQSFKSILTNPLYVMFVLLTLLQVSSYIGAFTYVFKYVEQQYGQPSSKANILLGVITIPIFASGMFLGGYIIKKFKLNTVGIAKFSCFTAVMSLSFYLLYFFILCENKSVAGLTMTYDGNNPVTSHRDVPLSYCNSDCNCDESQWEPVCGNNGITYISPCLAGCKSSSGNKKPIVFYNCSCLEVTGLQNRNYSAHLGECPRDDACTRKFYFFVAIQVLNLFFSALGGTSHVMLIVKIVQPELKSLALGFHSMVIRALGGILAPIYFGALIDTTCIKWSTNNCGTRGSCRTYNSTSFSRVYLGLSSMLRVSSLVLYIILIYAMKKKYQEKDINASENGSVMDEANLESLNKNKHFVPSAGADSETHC
The experiment in a line: OATP1B1 inhibition assay using 3H-E217βG as probe substrate, HEK293FT cells. The class given is cell-based. Details: expressed in transfected cells. The settings on record: for IC50 (μM): NIO = no interaction observed. The method, then: HEK293FT-Mock and OATP-transfected cells (1×10^5 cells each) were seeded 24 hr prior to assay. Pre-rinsed ells were incubated for 3 minutes with 1 μM ^3H-E217βG in HK buffer in the presence of various concentrations of test compound or positive control rifampicin. After the experiment cells were rinsed with Krebs-Henseleit buffer and lysed with 0.1 M NaOH. The amount of substrate inside the cells was determined by liquid scintillation reader.
(§2) Percent inhibition was calculated according to the following equation: % inhibition=[1−{[OATP]i−[WT]ni}/{[OATP]ni−[WT]ni}]*100 where: [OATP]i represent the substrate accumulation in the presence of test compound for either OATP1B1, OATP1B3, or OATP2B1 cells; [OATP]ni represents the substrate accumulation in the absence of test compound for either OATP1B1, OATP1B3, or OATP2B1 cells, respectively; and [WT]ni represents the substrate accumulation in the absence of test compound for wild type cells or Mock cells, respectively. IC50 Determination in Transporter Assays
(§3) IC50 was determined according to the procedures described in Example 5. […] Results are reported as NIO (no interaction observed).

In data set [3] the test system is cryopreserved hepatocytes. The experiment in a line: Metabolites of [14C]BIC in cryopreserved hepatocytes, human. The following applies: 4 hours, [14C]BIC 20 μM. The class given is in vitro ADME.
From the text: as §1

For the next data set, the target named is T2, OATP2B1 (Homo sapiens, UniProt O94956).
T2 construct: expressed in transfected cells; host or cells: MDCKII cells
T2 sequence (O94956 1-709): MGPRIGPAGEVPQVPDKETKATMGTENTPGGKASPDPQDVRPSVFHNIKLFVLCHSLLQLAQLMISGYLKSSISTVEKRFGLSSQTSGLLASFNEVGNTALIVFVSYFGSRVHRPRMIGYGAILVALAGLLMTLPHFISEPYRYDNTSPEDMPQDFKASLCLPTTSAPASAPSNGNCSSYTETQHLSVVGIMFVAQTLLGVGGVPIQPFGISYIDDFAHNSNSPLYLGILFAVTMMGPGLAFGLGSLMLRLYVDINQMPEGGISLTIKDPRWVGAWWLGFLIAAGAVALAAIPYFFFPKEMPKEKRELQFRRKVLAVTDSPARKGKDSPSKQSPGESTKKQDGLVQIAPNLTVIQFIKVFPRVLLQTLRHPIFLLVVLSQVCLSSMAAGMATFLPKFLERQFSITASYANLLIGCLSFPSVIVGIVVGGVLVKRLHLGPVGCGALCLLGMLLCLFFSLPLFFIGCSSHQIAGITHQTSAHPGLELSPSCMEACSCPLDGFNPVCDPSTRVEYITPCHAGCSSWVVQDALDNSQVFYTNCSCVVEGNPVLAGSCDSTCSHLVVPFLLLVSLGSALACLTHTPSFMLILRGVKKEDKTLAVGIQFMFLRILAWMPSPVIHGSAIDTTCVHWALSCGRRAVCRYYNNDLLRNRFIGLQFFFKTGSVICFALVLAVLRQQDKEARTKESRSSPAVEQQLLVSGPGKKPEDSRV
The experiment in a line: OATP2B1 inhibition assay, 3H-E3S uptake, MDCKII cells. The data set is classed as cell-based. The method, then:
MDCKII-Mock and OATP2B1-transfected cells (1×10^5 cells each) were seeded 24 hr prior to assay. Pre-rinsed cells were incubated for 2 minutes with 0.2 μM ^3H-E3S in HK buffer in the presence of various concentrations of test compound or positive control fluvastatin. After the experiment cells were rinsed with Krebs-Henseleit buffer and lysed with 0.1 M NaOH. The amount of substrate inside the cells was determined by liquid scintillation reader.
as §2, §3

Data set [4] is described as follows: Stability of synthetic M15 observed during purification. The data set is classed as physicochemical. The method, then: Anomeric bromination of 1 with 33% HBr in acetic acid gave bromide 2 in 70% crystallized yield. Treatment of phenol 3 with bromide 2 in the presence of Ag2CO3 in acetonitrile at 60° C. produced compound 4 in 75% yield after reverse phase chromatography. Deprotection of 4 with triethylamine in methanol/water gave clean conversion to glucuronic acid 5 (M15). The reaction was stopped at 90% conversion since the amount of 3 present in the reaction started to increase. The mixture was purified by reverse phase chromatography with 0.1% TFA in the chromatography solvent. The free acid was isolated after lyophilization, however it contained a significant amount of 3. […] Another batch was purified using the same method as before but the TFA was neutralized with triethylamine before lyophilization. The compound was stable to the conditions but contained a large amount of triethylammonium trifluoroacetate. Not all salt was removed. The material was purified by reverse phase chromatography but without TFA in the solvent. After lyophilization the triethylamine salt of M15 (5) was isolated in high purity and 24% overall yield.

A short description of data set [5]: Precipitation of test compound in transporter assay buffer. The data set is classed as physicochemical. The settings on record: 300 μM, MRP2 assay buffer.

Take `O=C(NCc1c(F)cc(F)cc1F)c1cn2c(c(O)c1=O)C(=O)N1[C@H]3CC[C@H](C3)O[C@@H]1C2` [BIC, bictegravir, reference compound]: the figures for the “Fraction of Radiochromatogram (%)” value in data set [1], in data set [2] and in data set [3] were 78.7%, 91.5% and 93.9%, respectively. In addition, the “IC50 (μM)” value at OATP1B1 and against OATP2B1 (NIO = no interaction observed) was “NIO” in each case.

Take `O=C(NCc1c(F)cc(F)cc1F)c1cn2c(c(O[C@@H]3O[C@H](C(=O)O)[C@@H](O)[C@H](O)[C@H]3O)c1=O)C(=O)N1[C@H]3CC[C@H](C3)O[C@@H]1C2` [Metabolite M15]: the “Stability of the free acid” value in data set [4] (free acid, neutral or acidic conditions) is reported as “unstable in either neutral or acidic conditions”. The “Stability of the triethylamine salt” value in data set [4] (triethylamine salt) was “appeared to be stable”.

In the case of `O=C(NCc1c(F)cc(F)c(OS(=O)(=O)O)c1F)c1cn2c(c(O)c1=O)C(=O)N1C(C2)O[C@@H]2CC[C@H]1C2` (stereo partly shown) [Metabolite M20], the “Precipitation in assay buffer” value in data set [5] is “Precipitation was observed”. On OATP1B1, the “IC50 (μM)” value is listed as “NIO*”. Besides, the “Maximum inhibition at highest test conc. (% of control)” value on OATP1B1 (at 100 μM) was “no dose dependent inhibition”. Moreover, the inhibition at 3 min, 100 µM on OATP1B1 (human, HEK293FT cells transfected with OATP1B1, probe 3H-E217βG (1 μM), at 100 μM, read-out: Maximum inhibition at highest test conc. (% of control)) amounted to 12%. The IC50 against OATP2B1 (NIO = no interaction observed) is greater than 100 µM. Moreover, the inhibition at 2 min, 100 µM at OATP2B1 (human, MDCKII cells transfected with OATP2B1, probe 3H-E3S (0.2 μM), at 100 μM, read-out: Maximum inhibition at highest test conc. (% of control)) is 26%.

For orientation: inhibition means the relative decrease from the control value, in per cent. For orientation: IC50 means the concentration needed to halve the response being measured. A lower IC50 goes with inhibition by little substance.

The values are drawn from patent US11253524B2 (Gilead Sciences, Inc., priority 2018, dated 2022).
